Test results as given in US20100227797A1, “USE OF CYCLOLIGNANS FOR THE TREATMENT OF TYPE 2 DIABETES AND AS CONTRACEPTIVES” (AXELAR AB, priority 2006, published 2010).
Values joined by “and” are separate entries in the source; they are usually repeats but may differ in a detail not shown here. Equal entries are not always repeated. Marks after values point to notes of the source that are not given here.

Assays:
[1] = test system: implantation of the embryo; assay: Effect on implantation in a mouse model; format: in vivo, mice; conditions: 20 mg/kg/12 h i.p., day 3 to 6 after plug
Experimental: The animals were put for mating and the vaginal plug was checked on the next morning. Six female mice positive for vaginal plug were treated with picropodophyllin (20 mg/kg/12 h, given intraperitoneally) and six with vehicle (controls) from day 3 to 6 after the plug. They were sacrificed on day 9 after ovulation. The organs collected were ovaries, uterus, liver and spleen for biochemical analysis.

[2] = test system: macular degeneration lesions; assay: Laser induction of macular degeneration lesions, mouse model; format: in vivo, C57Bl/6 mice; set-up: Area of macular degeneration: scale not given here
Experimental: To induce macular degeneration lesions adult C57Bl/6 mice were anesthetized and three laser spots were placed in fundus flavimaculatus of the choroidea with a krypton red laser (614 nm, […], 0.05 second, 200 mW). The mice were then treated with PPP (20 mg/kg/12 h) intraperitoneally using DMSO as vehicle for two weeks. Control mice were treated with vehicle only. Twenty mice were treated in each group. Two weeks after the laser treatment, the animals were perfused with 3% FITC-conjugated high-molecular-weight dextran, sacrificed and choroidal flat mounts were prepared. Flat-mounts were examined with fluorescence microscopy Axioskop microscope. Macular degeneration lesions were identified as FITC-perfused vessels. Image-Pro Plus software was used to measure the area of each CNV lesion. Data were recorded as area of macular degeneration lesions (μm^2). Macular degeneration is the leading cause of vision loss. Macular degeneration lesions were induced in 40 adult C57Bl/6 mice by laser. Twenty animals received intraperitoneal (i.p.) injections of picropodophyllin (PPP; 20 mg/kg/12 h) for 2 weeks. Controls received i.p. injections of vehicle. Two weeks after the laser treatment the animals were sacrificed and choroidal flat mounts were prepared. Flat-mounts were examined with fluorescence microscopy. Image-Pro Plus software was used to measure the area of each CNV lesion.

ovulation = assay: Effect on ovulation in a mouse model; format: in vivo; conditions: female mice
Experimental: Female mice were treated with picropodophyllin (PPP; 20 mg/kg/12 h, given intrapritoneally) on days −1 and 0 of mating. The vaginal plug was checked on the next morning. Six animals from each group were sacrificed 4 days after mating. The organs collected were ovaries, uterus, liver and spleen for biochemical analysis.

[3] = Assay of blood glucose in mice after one week picropodophyllin treatment; format: in vivo, SCID mice; conditions: 20 mg/kg/12 h i.p.
Experimental: Ten weeks old SCID mice were treated with PPP (20 mg/kg/12 h) intraperitoneally using DMSO as vehicle. Control mice were treated with vehicle only. Three mice were treated in each group. After treatment for 7 days, the mice were sacrificed 4 h after the last injections. Blood samples were taken and the concentration of glucose in the serum was determined by a dry slide technique using Vitros 950 Chemistry System. In this experiment, healthy SCID mice were treated with picropodophyllin by intraperitoneal injections twice daily, the dose being 20 mg/kg/12 h. The control group was treated with the vehicle only (totally per day: 20 μL DMSO). Each group included 3 mice.

## COc1cc([C@@H]2c3cc4c(cc3[C@H](O)[C@H]3COC(=O)[C@@H]23)OCO4)cc(OC)c1OC [PPP, picropodophyllin]
[1]; no statistical significance
  Effect on implantation of the embryo: interferes negatively with implantation
[1]; 6 plug-positive female mice, sacrificed day 9, vehicle 4 of 6, not statistically significant
  Number of pregnancies: 2*
[2]; mean, C57Bl/6 mice, 20 mg/kg/12 h i.p. for 2 weeks after laser, vehicle mean 2.565
  Area of macular degeneration: Mean: 1.753 μm^2
[2]; versus vehicle, 20 mg/kg/12 h i.p. for 2 weeks, statistically significant
  Decrease in macular degeneration lesion area: 32%
ovulation; 20 mg/kg/12 h i.p. on days -1 and 0 of mating, n = 36, vehicle 3 of 6
  Number of mice with positive plug: n = 0
ovulation; 20 mg/kg/12 h i.p. on days -1 and 0 of mating, vehicle 50%
  Percent ovulated mice: 0%
ovulation; 20 mg/kg/12 h i.p., P=0.005919, Fishers exact test
  Inhibition of ovulation: did not ovulate at all
[3]; SCID mice, one week, compared to controls
  Effect on blood glucose levels: decreased the blood glucose levels
[3]; individual SCID mice, 7 days, sampled 4 h after last injection, 20 mg/kg
  Glucose level in serum: 4.5 mM (2×) and 5.7 mM
[3]; mean of 3 SCID mice, 7 days, vehicle control mean 7.0
  Glucose level in serum, mean: 4.9 mM
